These results are taken from patent US20130143902A1, “COMPOSITIONS AND METHODS OF TREATING A PROLIFERATIVE DISEASE WITH A QUINAZOLINONE DERIVATIVE” (GILEAD CALISTOGA LLC, priority 2011, published 2013).

Data set [1] concerns PTEN null T-ALL. The data set is described as follows: Diseased Lck/PTEN^fl/fl mice with PTEN null T-ALL. Format: in vivo. The following applies: 30 mg/kg BID, Day 4 and 7, compared to control mice.
In data set [2] the test system is 22Rv1. Briefly: pAkt pathway inhibition, 22Rv1. It counts as cell-based. The following applies: Homo sapiens; 22Rv1, Prostate.
The subject of data set [3] is PC3. Briefly: pAkt pathway inhibition, PC3. It counts as cell-based. The following applies: Homo sapiens, PC-3; PC3, Prostate.
The subject of data set [4] is T47D. Briefly: Viability (AlamarBlue), T47D. Format: cell-based. The following applies: Homo sapiens, Breast. How it is done: For primary T-ALL samples, cell viability was determined using the BD Cell Viability kit (BD Biosciences) and fluorescent counting beads as previously described in Armstrong, F. et al., NOTCH is a key regulator of human T-cell acute leukemia initiating cell activity, Blood 113, 1730-1740 (2009). Cells were plated with MS5-DL1 stroma cells. After 72 hours following treatment, cells were harvested and stained with an APC-conjugated anti-human CD45 according to the manufacturer's instructions. For solid tumor cell lines, cellular viability was determined using the AlamarBlue kit (Invitrogen). About 10,000 cells in 100 μL of media containing 10% FBS were aliquoted into individual wells of a 96-well plate and treated with vehicle (DMSO) or compound in triplicate for 24 hours. Ten μL of AlamarBlue reagent was added to each well and incubated for 4 hours at 37° C. with 5% CO2. Fluorescence was measured with an excitation wavelength at 530 to 560 nm and emission wavelength at 590 nm using Spectramax M5 plate reader (Molecular Devices, Sunnyvale, Calif.).

A short description of data set [5]: Dog PK. It counts as in vivo. The following applies: plasma. The source says: The pharmacokinetics of Compound A in mouse and dogs were also examined. […] The results of Tmax (time of maximum observed concentration), Cmax (maximum concentration in plasma measured), AUC (area under the curve for plasma concentration versus time), Cl (total body clearance), and Vz (volume of distribution) were summarized in Table 4. As used herein, the mark ‘-’ represents data not relevant. AUC is shown as the unit of ng*h/mL (ng=nanograms, h=hour, mL=milliliter); ng are multiplied by h, and the value is divided by the volume in mL.

The subject of data set [6] is pAkt in T Cell Malignancies. Briefly: pAkt activity, T cell malignancies. The following applies: N = 7. It counts as cell-based. The source says: Cellular viability and pAkt activity were used to determine effects of Compounds A, C, and D in solid tumor, B-cell malignancies, and T-cell malignancies.
The test system of data set [7] is U87MG. Briefly: pAkt pathway inhibition, U87MG. It counts as cell-based. The following applies: Homo sapiens, U-87 MG, Glioma.

Take `CC(Nc1ncnc2[nH]cnc12)c1nc2cccc(Cl)c2c(=O)n1-c1ccccc1` (centres unmarked) [Compound A, 2-(1-(9H-purin-6-ylamino)ethyl)-5-chloro-3-phenylquinazolin-4(3H)-one]: the luminescent signal entry in data set [1] is “significantly lower”. Also, the EC50 in data set [2] was 250 nM; in data set [3] it was 155 nM; in data set [6], 0.31 µM; in data set [7] it was 17 nM. In data set [4], this compound returned a GI50 of 1.7 µM. Further, in data set [5] (IV 1 mg/kg), the clearance is 6.08 mL/min/kg. Besides, the Vd in data set [5] (IV 1 mg/kg, read-out: Vz) came out at 0.891 L/kg. The same compound registered an AUC in data set [5] (PO 1 mg/kg) of 4450 ng·h/mL. In data set [5] (PO 1 mg/kg), the Cmax stood at 1040 ng/mL. The Tmax in data set [5] (PO 1 mg/kg) is 2.3 h.
